Patent publication US8354522B2, “Immunostimulatory oligoribonucleotides” (Coley Pharmaceutical GmbH, priority 2005, dated 2013)
Like-named read-outs stand apart in the source and are kept apart here.

Tested on: Human PBMC
Test: Cytokine production upon human PBMC stimulation (ORN complexed to DOTAP, 16 h, ELISA)
Assay type: cell-based
Set-up: key to IFN-alpha / TNF-alpha: +: cytokine production; −: no cytokine production
Settings: for IFN-alpha / TNF-alpha: human PBMC stimulated for 16 h, supernatant ELISA; for EC50 / IFN-alpha max activity / TNF-alpha max activity: human PBMC, ORN complexed to DOTAP, 16 h; for EC50: full titration 2 μM to 0.9 nM; for IFN-alpha max activity / TNF-alpha max activity: mean max activity at 0.6 μM, 3-6 blood donors
Protocol: Human peripheral blood mononuclear cells (PBMCs) were isolated from healthy donors, plated, and stimulated in vitro with various test and control immunostimulatory agents for 16 hours. After 16 hours, the supernatants were collected and then analyzed by ELISA assay. N-U-R1-R2,-Containing Oligoribonucleotides were tested complexed to DOTAP and with full titration curves (7 concentrations), starting from 2 μM ORN complexed to 25 μg/ml DOTAP and with 1/3 dilution steps. Also included were certain negative controls, including medium alone and DOTAP (25 μg/ml culture well; “Liposomes”) alone. The control immunostimulatory agents included the imidazoquinoline R-848 (2 μM with 1/3 dilution steps and 7 concentrations) the reported ligand for TLR7, ORN having TLR8 motifs such as AU and AUU sequences (SEQ ID NO:13-SEQ ID NO:15) ORN having TLR7/8 motifs such as CU, GU and GUU sequences (SEQ ID NO:19-SEQ ID NO:23).
Human PBMC were stimulated with ORN complexed to DOTAP. After 16 hours supernatants were harvested and TNF-alpha and IFN-alpha levels were measured. Mean/Max activities at 0.6 μM of 3-6 blood donors and two individual experiments were determined. […] TLR8 and TLR7/8 ORN are divided by a red line.
Human PBMC were stimulated with ORN complexed to DOTAP. After 16 hours supernatants were harvested and IFN-alpha levels were measured. Mean/Max activities at 0.6 μM and EC50 of full titration curves (range: 2 μM to 0.9 nM) of 3-6 blood donors and two individual experiments were determined. […] Low EC50/high Max activity represents TLR7/8 ORN (FIG. 5a) whereas high EC50 and low Max activity represents TLR8 ORN (FIG. 5b).
The ORN sequences listed in Table 1 were tested for IFN-alpha and TNF-alpha production upon human PBMC stimulation. Human PBMC were stimulated for 16 h with the indicated ORN, and supernatants were harvested and cytokine production measured by ELISA. Table 2 summarizes the min/max activity and EC50 of ORN for IFN-alpha and TNF-alpha production.

Substance | IFN-alpha | TNF-alpha | EC50 (read-out: IFN-alpha EC50) | EC50 (read-out: TNF-alpha EC50) | IFN-alpha max activity | TNF-alpha max activity
A*A*A*A*U*A*A*A*A*U*A*A*A*A*U*A*A*A*A*U (AAAAUAAAAUAAAAUAAAAU; listed as RNA, chemistry not fully specified) [SEQ ID NO: 18] | − | + |  |  |  | 
A*A*A*U*A*A*A*U*A*A*A*U*A*A*A*U*A*A*A*U (AAAUAAAUAAAUAAAUAAAU; listed as RNA, chemistry not fully specified) [SEQ ID NO: 17] | − | + |  |  |  | 
A*A*U*A*A*U*A*A*U*A*A*U*A*A*U*A*A*U*A*A (AAUAAUAAUAAUAAUAAUAA; listed as RNA, chemistry not fully specified) [SEQ ID NO: 16] | − | + |  |  |  | 
A*U*A*G*G*C*A*C (AUAGGCAC; phosphorothioate linkages, chemistry not fully specified) [SEQ ID NO: 4] | − | + |  |  |  | 
C*C*G*A*G*C*C*A*U*A*U*A*U*A*U*C (CCGAGCCAUAUAUAUC; listed as RNA, chemistry not fully specified) [SEQ ID NO: 39] |  |  | ≥ 1500 nM | 324 nM | 356.7 pg/mL | 19253 pg/mL
C*C*G*A*G*C*C*A*U*A*U*A*U*C*C*C (CCGAGCCAUAUAUCCC; listed as RNA, chemistry not fully specified) [SEQ ID NO: 38] |  |  | ≥ 1500 nM | 890 nM | 245 pg/mL | 14064 pg/mL
C*C*G*A*G*C*C*G*A*A*G*A*U*A*C*C (CCGAGCCGAAGAUACC; listed as RNA, chemistry not fully specified) [SEQ ID NO: 85] |  |  | > 2000 nM | 215 nM | 193.7 pg/mL | 17146 pg/mL
C*C*G*A*G*C*C*G*A*A*G*C*U*A*C*C (CCGAGCCGAAGCUACC; listed as RNA, chemistry not fully specified) [SEQ ID NO: 87] |  |  | > 2000 nM | 346 nM | 100.5 pg/mL | 12979 pg/mL
C*C*G*A*G*C*C*G*A*A*G*C*U*C*C*C (CCGAGCCGAAGCUCCC; listed as RNA, chemistry not fully specified) [SEQ ID NO: 84] |  |  | > 2000 nM | 377 nM | 67.76 pg/mL | 8545 pg/mL
C*C*G*A*G*C*C*G*A*A*G*C*U*G*C*C (CCGAGCCGAAGCUGCC; listed as RNA, chemistry not fully specified) [SEQ ID NO: 88] |  |  | > 2000 nM |  | 73.19 pg/mL | 11996 pg/mL
C*C*G*A*G*C*C*G*A*A*G*G*C*A*C*C (CCGAGCCGAAGGCACC; listed as RNA, chemistry not fully specified) [SEQ ID NO: 56] |  |  | > 2000 nM |  | 59.84 pg/mL | 4430 pg/mL
C*C*G*A*G*C*C*G*A*A*G*G*U*A*C*C (CCGAGCCGAAGGUACC; listed as RNA, chemistry not fully specified) [SEQ ID NO: 82] |  |  | > 2000 nM | 219 nM | 204 pg/mL | 12595 pg/mL
C*C*G*A*G*C*C*G*A*A*G*G*U*C*C*C (CCGAGCCGAAGGUCCC; listed as RNA, chemistry not fully specified) [SEQ ID NO: 86] |  |  | 767 nM | 850 nM | 856.5 pg/mL | 4178 pg/mL
C*C*G*A*G*C*C*G*A*A*G*G*U*G*C*C (CCGAGCCGAAGGUGCC; listed as RNA, chemistry not fully specified) [SEQ ID NO: 83] |  |  | > 2000 nM | 215 nM | 96.22 pg/mL | 12207 pg/mL
C*C*G*A*G*C*C*G*A*A*U*A*A*C*C*C (CCGAGCCGAAUAACCC; listed as RNA, chemistry not fully specified) [SEQ ID NO: 40] |  |  | ≥ 1500 nM | 352 nM | 235.3 pg/mL | 18083 pg/mL
C*C*G*A*G*C*C*G*A*A*U*A*C*C*C*C (CCGAGCCGAAUACCCC; listed as RNA, chemistry not fully specified) [SEQ ID NO: 42] |  |  | ≥ 1500 nM | 395 nM | 392.4 pg/mL | 17418 pg/mL
C*C*G*A*G*C*C*G*A*A*U*C*C*C*C*C (CCGAGCCGAAUCCCCC; listed as RNA, chemistry not fully specified) [SEQ ID NO: 44] |  |  | ≥ 1500 nM | 321 nM | 305.6 pg/mL | 19473 pg/mL
C*C*G*A*G*C*C*G*A*A*U*G*U*A*C*C (CCGAGCCGAAUGUACC; listed as RNA, chemistry not fully specified) [SEQ ID NO: 63] |  |  | 1840 nM | 309 nM | 177.3 pg/mL | 34219 pg/mL
C*C*G*A*G*C*C*G*A*A*U*U*C*A*C*C (CCGAGCCGAAUUCACC; listed as RNA, chemistry not fully specified) [SEQ ID NO: 80] |  |  | 33 nM | 217 nM | 1225 pg/mL | 28108 pg/mL
C*C*G*A*G*C*C*G*A*A*U*U*U*A*C*C (CCGAGCCGAAUUUACC; listed as RNA, chemistry not fully specified) [SEQ ID NO: 60] |  |  | 109 nM | 187 nM | 1463 pg/mL | 36562 pg/mL
C*C*G*A*G*C*C*G*A*C*U*G*U*A*C*C (CCGAGCCGACUGUACC; listed as RNA, chemistry not fully specified) [SEQ ID NO: 61] |  |  | 736 nM | 141 nM | 587.7 pg/mL | 42180 pg/mL
C*C*G*A*G*C*C*G*A*C*U*U*U*A*C*C (CCGAGCCGACUUUACC; listed as RNA, chemistry not fully specified) [SEQ ID NO: 57] |  |  | 77 nM | 213 nM | 1499 pg/mL | 33624 pg/mL
C*C*G*A*G*C*C*G*A*G*C*U*C*A*C*C (CCGAGCCGAGCUCACC; listed as RNA, chemistry not fully specified) [SEQ ID NO: 81] |  |  | 667 nM | 802 nM | 842.9 pg/mL | 14519 pg/mL
C*C*G*A*G*C*C*G*A*G*U*U*C*A*C*C [SEQ ID NO: 67] (CCGAGCCGAGUUCACC; listed as RNA, chemistry not fully specified) |  |  | 81 nM | 79 nM | 2094 pg/mL | 40729 pg/mL
C*C*G*A*G*C*C*G*A*G*U*U*C*A*C*C [SEQ ID NO: 77] (CCGAGCCGAGUUCACC; listed as RNA, chemistry not fully specified) |  |  | 151 nM | 257 nM | 2519 pg/mL | 21820 pg/mL
C*C*G*A*G*C*C*G*A*G*U*U*U*A*C*C (CCGAGCCGAGUUUACC; listed as RNA, chemistry not fully specified) [SEQ ID NO: 58] |  |  | 63 nM | 203 nM | 1760 pg/mL | 36627 pg/mL
C*C*G*A*G*C*C*G*A*T*U*G*U*A*C*C (CCGAGCCGANUGUACC; Oligoribonucleotide, chemistry of T and the '*' linkage is not given here, further chemistry not given here) [SEQ ID NO: 62] |  |  | 276 nM | 343 nM | 1945 pg/mL | 37334 pg/mL
C*C*G*A*G*C*C*G*A*T*U*U*C*A*C*C [SEQ ID NO: 68] (CCGAGCCGANUUCACC; Oligoribonucleotide, chemistry of T and the '*' linkage is not given here, further chemistry not given here) |  |  | 18 nM | 217 nM | 1821 pg/mL | 29647 pg/mL
